Test results: US11135178B2, “Thymol and carvacol for use in medicine” (UNIVERSITY OF IOWA RESEARCH FOUNDATION, priority 2014, dated 2021)

Legend:
C2C12 myotubes [1] = assay: Fura-2 Ca2+ ratios in C2C12 myotubes, functional screen with TRPV agonists; type: cell-based; settings: for intracellular (cytosolic) Ca2+ rise: Fura-2 Ca2+ ratios
Method: FIG. 2. Fura-2 Ca^2+ Ratios in C2C12 myotubes in response to known activators of TRPV1 (Capsaicin), TRPV3 (Thymol, Carvacrol, 2-APB), and TRPV4 (GSK 101). ** p<0.01 compared to vehicle Ca^2+ response.
To determine the physiological significance of these TRPV ion channels in skeletal muscle Ca^2+ homeostasis, a functional screen for the magnitude of intracellular Ca^2+ rise was performed using known agonists for TRPV1 (Capsaicin), TRPV3 (Carvacrol/Thymol/2-APB) and TRPV4 (GSK101) in C2C12 myotubes (FIG. 2). C2C12 myoblasts were grown to confluency and then differentiated into myotubes by culturing in Dulbecco's Modified Eagles Medium (DMEM) with 2% horse serum for 5 days. Measurement of Fura-2 Ca2+ ratios in C2C12 myotubes was performed as described previously in cultured adipocytes (Ye L., et al., TRPV4 is a regulator of adipose oxidative metabolism, inflammation, and energy homeostasis. Cell. 2012; 151:96-110).

[2] = system: flexor digitorum brevis (FDB) muscle fibers; assay: Confocal calcium imaging (Fluo-4AM) of freshly isolated FDB muscle fibers; type: cell-based, mouse; settings: for effects on Ca2+ cycling: freshly isolated muscle fibers, carvacrol 100, 200, 500 μM, thymol 50, 100, 200 μM
Method: FIG. 3. Confocal calcium imaging (Fluo-4AM) of freshly isolated mouse flexor digitorum brevis (FDB) muscle fibers in response to sequential applications of carvacrol (A: 100, 200 and 500 μM) and thymol (B: 50, 100 and 200 μM).
These findings were further validated in freshly isolated mouse flexor digitorum brevis (FDB) muscle fibers (FIG. 3) to confirm the result in primary muscle cells. Primary skeletal muscle fibers were isolated from flexor digitorum brevis (FDB) muscle. In brief, FDB muscles were dissected and mechanically cleaned of connective tissue in a standard Ringer's solution containing (in mM): 146 NaCl, 5 KCl, 2 CaCl2, 1 MgCl2, and 10 HEPES, pH 7.4 with NaOH. Muscles were then shaken for 40 min at 37° C. in 1 mg/ml of collagenase A (Roche) dissolved in Ringer's solution. After collagenase treatment, individual FDB fibers were dissociated by gentle trituration using Pasteur pipettes of decreasing bore size. […] All experiments were conducted at room temperature on fibers obtained within 8 h of isolation. Confocal calcium imaging of FDB fibers were performed as described previously in cardiac myocytes but at room temperature (23° C.) (Sah R., et al., Ion channel-kinase TRPM7 is required for maintaining cardiac automaticity. Proc Natl Acad Sci USA. 2013; 110:E3037-46).

IGF-1 = assay: qRT-PCR transcriptional screen in C2C12 myotubes: IGF-1; type: cell-based; settings: 48 hrs
Method: (§1) FIG. 5. […] A. fold change after 48 hrs carvacrol (0, 5, and 100 μM, from left to right for each grouping); and B. thymol (0, 5, and 50 μM, from left to right for each grouping).
(§2) A qRT-PCR based transcriptional screen was then performed to assess for induction of the classical genes associated with exercise-induced changes in skeletal muscle, including growth, and enhanced endurance (FIG. 5). Transcriptional analysis of candidate genes was performed as described previously (Sah R., et al., The Timing of Myocardial Trpm7 Deletion during Cardiogenesis Variably Disrupts Adult Ventricular Function, Conduction and Repolarization. Circulation. 2013; Sah R., et al., Ion channel-kinase TRPM7 is required for maintaining cardiac automaticity. Proc Natl Acad Sci USA. 2013; 110:E3037-46) using the following primers: […]

PGC1α = assay: qRT-PCR transcriptional screen in C2C12 myotubes: PGC1α; type: cell-based; settings: 48 hrs
Method: as §1, §2

C2C12 myotubes [3] = assay: Myotube hypertrophy by immunostaining and confocal imaging (myotube diameter); type: cell-based; settings: 50 μM for 48 hours
Method: FIG. 4. A. Confocal images immunostained C2C12 myotubes (staining skeletal actin and Topro-3 nuclear stain) incubated for 48 hrs in vehicle (left) or carvacrol 50 μM (right). B. quantification of myotube width. NT—not treated, Vehicle—DMSO.
It was next examined whether the increase in cytosolic Ca^2+ induced by this class of compounds could induce cellular hypertrophy in vitro in C2C12 myotubes as would occur with augmented Ca^2+ release during exercise. Immunostaining and confocal imaging of C2C12 myotubes were performed as described previously in cardiac myocytes (Sah R., et al., The Timing of Myocardial Trpm7 Deletion during Cardiogenesis Variably Disrupts Adult Ventricular Function, Conduction and Repolarization. Circulation. 2013).

C57/B6 mice [4] = assay: Skeletal muscle hypertrophy by muscle weight; type: in vivo, mouse; settings: sedentary C57/B6 mice, 20 mg/kg/day oral gavage, 5 weeks
Method: FIG. 8: Skeletal muscle weight in sedentary C57/B6 mice after 5 weeks of treatment with either vehicle or thymol (for each group, the left bar represents vehicle and the right bar represents thymol).
(§3) Based on these strong in vitro data, in vivo studies were then performed to determine both safety and efficacy of using thymol and/or carvacrol to mimic the effects of exercise on skeletal muscle function. […] Accordingly, the pilot studies were limited to thymol alone and treated sedentary C57/B6 mice with either vehicle (Sunflower oil) or Thymol (20 mg/kg/day) by oral gavage for 5 weeks and then assessed exercise capacity by treadmill testing, core body temperature by infra-red thermal imaging, and skeletal muscle hypertrophy by muscle weight. […] J Gen Physiol. 2014; 143:119-34)) after mild exercise (FIG. 7) and an increase in gastrocnemius muscle weight (weight bearing muscles—FIG. 8).

TRPV3 knock-out mice = assay: In vivo experiments repeated in TRPV3 knock-out mice; set-up: species or system mouse; settings: TRPV3 KO mice, 20 mg/kg/day, 5 weeks
Method: FIG. 9: Exercise tolerance measured by treadmill testing of TRPV3 KO mice before and after 5 weeks of either vehicle or thymol (20 mg/kg/day). A. Exercise protocol and tolerance after vehicle or thymol. B. Mean exercise tolerance pre and post treatment.
as §3

C57/B6 mice [5] = assay: Exercise tolerance by treadmill testing of sedentary mice; type: in vivo, mouse; settings: 20 mg/kg/day oral gavage, 5 weeks
Method: FIG. 6. Exercise tolerance measured by treadmill testing of C57/B6 mice before and after 5 weeks of either vehicle or thymol (20 mg/kg/day). A. Exercise protocol and tolerance after vehicle or thymol. B. Mean exercise tolerance pre and post treatment.
as §3

C57/B6 mice [6] = assay: Core body temperature by infra-red thermal imaging after mild exercise; type: in vivo, mouse; settings: sedentary C57/B6 mice, 20 mg/kg/day oral gavage, 5 weeks
Method: FIG. 7. Top: Representative thermal images of vehicle (left) and thymol (right) treated mice. Bottom: Mean data of temperature of upper and lower body in vehicle-treated vs thymol treated mice.
as §3

| Compound | intracellular (cytosolic) Ca2+ rise (C2C12 myotubes [1]) | effects on Ca2+ cycling [2] | induction of IGF-1 (IGF-1) [fold] | induction of PGC1α (PGC1α) [fold] | other results |
| --- | --- | --- | --- | --- | --- |
| NCCOB(c1ccccc1)c1ccccc1 [2-APB, reference compound] | reproducible and reversible increases | – | – | – | – |
| COc1cc(CNC(=O)CCCC/C=C/C(C)C)ccc1O [Capsaicin, reference compound] | essentially no effect | – | – | – | – |
| CC(C)C[C@H](NC(=O)c1cc2ccccc2s1)C(=O)N1CCN(C(=O)[C@H](CO)NS(=O)(=O)c2ccc(Cl)cc2Cl)CC1 [GSK101, reference compound] | essentially no effect | – | – | – | – |
| Cc1ccc(C(C)C)cc1O [carvacrol, 2-methyl-5-isopropylphenol] | reproducible and reversible increases | clear effects | ~8 | 13.8 | myotube hypertrophy (increase in myotube diameter) (C2C12 myotubes [3]): significant myotube hypertrophy |
| Cc1ccc(C(C)C)c(O)c1 [thymol, 2-isopropyl-5-methylphenol] | reproducible and reversible increases | clear effects | ~4 | 3 | gastrocnemius muscle weight (C57/B6 mice [4]): increase; potency at augmenting cytosolic Ca2+ relative to carvacrol ([2]; freshly isolated mouse FDB fibers): approximately twice as potent as carvacrol; potency at augmenting cytosolic Ca2+ relative to carvacrol (C2C12 myotubes [1]): approximately twice as potent as carvacrol; augmented thermogenesis in TRPV3 knock-out mice (TRPV3 knock-out mice): abolished; enhanced exercise capacity in TRPV3 knock-out mice (TRPV3 knock-out mice): abolished; gastrocnemius hypertrophy in TRPV3 knock-out mice (TRPV3 knock-out mice): abolished; augmented exercise capacity over vehicle treated mice (C57/B6 mice [5]): 37%; core body temperature after mild exercise (C57/B6 mice [6]): significant increase |
